Measurements taken from PubChem BioAssay (NCI).
Several values for one entry are separate records, joined by “and”; a condition that tells them apart may be missing. Equal values may be shown once.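 Exposure lasted 48 hours, with cells grown in 96-well plates and compounds tested at five concentrations. GI50 = concentration required for 50% inhibition of growth. TGI is the concentration that stops growth completely.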

Columns and labels:
Assay in all cases: inhibition of tumour cell growth, NCI panel, 48 h
M14 melanoma = system: M14 melanoma
HT29 colon = system: HT29 colon
SNB-19 CNS = system: SNB-19 CNS
IGROV1 ovarian = system: IGROV1 ovarian
COLO 205 colon = system: COLO 205 colon
SN12C renal = system: SN12C renal
HCT-15 colon = system: HCT-15 colon
MDA-MB-435 = system: MDA-MB-435
SF-295 CNS = system: SF-295 CNS
OVCAR-3 ovarian = system: OVCAR-3 ovarian

Structure (SMILES)	GI50 (M14 melanoma)	TGI (M14 melanoma)	GI50 (HT29 colon)	TGI (HT29 colon)	GI50 (SNB-19 CNS)	TGI (SNB-19 CNS)	GI50 (IGROV1 ovarian)	TGI (IGROV1 ovarian)	GI50 (COLO 205 colon)	TGI (COLO 205 colon)	GI50 (SN12C renal)	TGI (SN12C renal)	GI50 (HCT-15 colon)	TGI (HCT-15 colon)	GI50 (MDA-MB-435)	TGI (MDA-MB-435)	GI50 (SF-295 CNS)	TGI (SF-295 CNS)	GI50 (OVCAR-3 ovarian)	TGI (OVCAR-3 ovarian)
c1ccc2[nH]c(-c3ccc(N4CCN(c5ccc(-c6nc7ccccc7[nH]6)cc5)CC4)cc3)nc2c1	12400 nM	> 100000 nM	> 100000 nM	> 100000 nM	10500 nM	> 100000 nM	69600 nM	> 100000 nM	> 100000 nM	> 100000 nM	> 100000 nM	> 100000 nM	> 100000 nM	> 100000 nM	> 100000 nM	> 100000 nM	> 100000 nM	> 100000 nM	> 100000 nM	> 100000 nM
Nc1ncnc2sc(=S)c3c(c12)CCC3	42700 nM	> 100000 nM	29800 nM	62800 nM	29200 nM	82900 nM	50500 nM	> 100000 nM	25100 nM	62600 nM	32800 nM	> 100000 nM	38200 nM	> 100000 nM	46900 nM	> 100000 nM	39600 nM	> 100000 nM	30700 nM	> 100000 nM
O=C(CCN1CCCC1)Nc1ccc2c(NCc3ccc(F)cc3)c3ccccc3nc2c1	1070 nM	2400 nM	377 nM	1850 nM	470 nM	1870 nM	363 nM	1500 nM	396 nM	1650 nM	390 nM	1660 nM	1530 nM	4070 nM	692 nM	1970 nM	590 nM	2030 nM	488 nM	1920 nM
CC1Oc2cc3c(-c4c(O)cc(O)c5c(O)c6c(cc45)OC(C)C(C)C6=O)c(O)cc(O)c3c(O)c2C(=O)C1C (stereo unspecified)	–	1120 nM	–	397 nM	–	1160 nM	–	1300 nM	–	390 nM	–	1120 nM	–	1150 nM	–	1160 nM	–	490 nM	–	816 nM
CC[C@](C)(O)C(=O)O[C@H]1C(=O)O[C@@H]2C[C@H]3C(C)=CC(=O)[C@@H](O)[C@]3(C)[C@H]3[C@@]4(O)OC[C@]32[C@@H]1[C@@H](C)[C@H]4O	–	396 nM	321 nM and 122 nM	10300 nM and 2270 nM	–	674 nM and 223 nM	73.6 nM	544 nM and 274 nM	1920 nM	7240 nM and 3350 nM	317 nM	2030 nM and 5180 nM	214 nM	874 nM and 533 nM	–	> 24300 nM	296 nM	2600 nM and 351 nM	387 nM	502 nM and 1620 nM
CCOC(=O)c1c2c(n(CC(C)C)c1C)-c1nc[nH]c1C(=O)C2=O	23000 nM	40500 nM	20400 nM	46500 nM	16400 nM	30100 nM	18800 nM	36000 nM	18000 nM	32300 nM	13400 nM	26200 nM	14700 nM	27900 nM	18200 nM	32600 nM	19200 nM	35900 nM	13000 nM	26300 nM
CCn1c(-c2nonc2N)nc2cncc(C(=O)N3CCNCC3)c21	> 25000 nM	> 25000 nM	> 25000 nM	> 25000 nM	> 25000 nM	> 25000 nM	> 25000 nM	> 25000 nM	> 25000 nM	> 25000 nM	> 25000 nM	> 25000 nM	> 25000 nM	> 25000 nM	> 25000 nM	> 25000 nM	> 25000 nM	> 25000 nM	> 25000 nM	> 25000 nM
CN(C)CCNC(=O)c1cccn2c(=O)c3cc4ccccc4cc3nc12	222 nM	1210 nM	69.1 nM	–	185 nM	47700 nM	39.6 nM	2170 nM	97.3 nM	246 nM	144 nM	> 100000 nM	200 nM	> 100000 nM	181 nM	1190 nM	67.9 nM	1100 nM	160 nM	573 nM
COc1ccc2c(c1)CCC1C2CCC2(C)C1CCC2(O)CNC(=O)CCCCC1CCSS1 (stereo unspecified)	20800 nM	> 100000 nM	2280 nM	6810 nM	18100 nM	51100 nM	22700 nM	> 100000 nM	6140 nM	> 100000 nM	16600 nM	> 100000 nM	3560 nM	> 100000 nM	7830 nM	> 100000 nM	19400 nM	79600 nM	8650 nM	29200 nM
CCN(CC)CCOc1ccc(C(=C(C)c2ccc(Cl)cc2)c2ccc(OCCN(CC)CC)cc2)cc1	633 nM	1140 nM	578 nM	1270 nM	699 nM	1560 nM	609 nM	1190 nM	581 nM	1160 nM	1190 nM	2880 nM	556 nM	1080 nM	558 nM	1020 nM	614 nM	1190 nM	643 nM	1360 nM
